# Test results published in publication PMC10403075, “Short hydrocarbon stapled ApoC2-mimetic peptides activate lipoprotein lipase and lower plasma triglycerides in mice” (Frontiers in Cardiovascular Medicine, 2023).
# Positions of bridges follow the written chain, without caps; N, C: chain ends. Non-standard residues stand in square brackets, D forms with d. Residues, ends and D or L forms follow the SMILES beside them. R8 = C=CCCCCCC[C@@](C)(N)C(=O)O; S5 = C=CCCC[C@](C)(N)C(=O)O
# Molecular target: T1, LPL from bovine milk (Bos taurus, UniProt P11151)
# T1 construct: LPL from bovine milk (Sigma-Aldrich); purchased Sigma-Aldrich; host or cells: bovine milk (natural source)
# T1 sequence (P11151 29-478): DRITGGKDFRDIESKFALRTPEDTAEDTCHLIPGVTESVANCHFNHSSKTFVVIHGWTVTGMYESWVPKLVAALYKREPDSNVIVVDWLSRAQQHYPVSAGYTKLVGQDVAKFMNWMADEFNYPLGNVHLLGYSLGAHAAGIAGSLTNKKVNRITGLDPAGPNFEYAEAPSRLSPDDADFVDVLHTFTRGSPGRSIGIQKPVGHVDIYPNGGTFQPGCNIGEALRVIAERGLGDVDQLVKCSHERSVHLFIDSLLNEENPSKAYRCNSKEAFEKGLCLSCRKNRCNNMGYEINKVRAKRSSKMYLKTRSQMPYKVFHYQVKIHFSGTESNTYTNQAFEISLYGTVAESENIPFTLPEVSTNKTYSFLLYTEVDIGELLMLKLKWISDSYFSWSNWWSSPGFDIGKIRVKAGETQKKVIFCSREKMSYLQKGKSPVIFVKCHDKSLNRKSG
# Assay: In vitro LPL activity assay (NEFA generation, ApoC2-deficient plasma substrate)
# Assay type: biochemical
# Conditions: 0-2 µM peptide, ApoC2-deficient plasma substrate, NEFA read-out, triplicates; for EC50: 0.83 nM bovine milk LPL, 30 min on ice then 37°C 1 h, read-out: EC50 for stimulating lipolysis (LPL activation)
# Method: LPL activity was determined by measuring the generation of non-esterified fatty acids (NEFA). In a 96-well plate, 0–2 µM of an ApoC2 mimetic peptide, 0.83 nM of LPL from bovine milk (Sigma-Aldrich), ApoC2-deficient ethylenediaminetetraacetic acid (EDTA)-plasma (diluted with PBS to a final TG concentration of 0.67 mg/dl), 2 IU/ml heparin, 0.2% fatty acids free bovine serum albumin (BSA) (ICN Biomedicals), and PBS (Life Technologies) were combined in a final reaction volume of 50 μl. The reaction mixture was pre-incubated on ice for 30 min and incubated at 37°C for 1 h. NEFA were measured with a coupled enzyme reaction (Wako Diagnostics) in a Synergy H1 microplate reader (BioTek, USA).
Compound,EC50 [nM],"in vitro LPL activation, dose response (result in words) (bovine milk LPL, 37°C 1 h)"
CC[C@H](C)[C@H](NC(=O)CNC(=O)[C@]1(C)CCCC=CCCCCCC[C@@](C)(NC(=O)[C@H](CO)NC(=O)[C@H](CCCCN)NC(=O)[C@H](CO)NC(=O)[C@H](Cc2ccc(O)cc2)NC(=O)[C@H](CC(C)C)NC(=O)[C@H](CC(=O)O)NC(=O)[C@H](CCCNC(=N)N)NC(=O)[C@H](CC(C)C)NC(=O)[C@H](CCCCN)NC(=O)[C@@H](N)CCC(=O)O)C(=O)N[C@@H](C)C(=O)N[C@@H](C)C(=O)N[C@@H](CCSC)C(=O)N[C@@H](CO)C(=O)N[C@@H]([C@@H](C)O)C(=O)N[C@@H](Cc2ccc(O)cc2)C(=O)N1)C(=O)N[C@@H](Cc1ccccc1)C(=O)N[C@H](C(=O)N[C@@H](CC(=O)O)C(=O)N[C@@H](CCC(N)=O)C(=O)N[C@H](C(=O)N[C@@H](CC(C)C)C(=O)N[C@@H](CO)C(=O)N[C@H](C(=O)N[C@@H](CC(C)C)C(=O)N[C@@H](CCCCN)C(=O)NCC(=O)N[C@@H](CCC(=O)O)C(=O)N[C@@H](CCC(=O)O)C(=O)O)C(C)C)C(C)C)[C@@H](C)O [P3] (H-EKLRDLYSKS[R8]AAMSTY[S5]GIFTDQVLSVLKGEE-OH; staple 11-18),25 to 33,–
CC[C@H](C)[C@@H]1NC(=O)CNC(=O)[C@H]([C@@H](C)O)NC(=O)[C@H](Cc2ccc(O)cc2)NC(=O)[C@H]([C@@H](C)O)NC(=O)[C@](C)(NC(=O)[C@H](CCSC)NC(=O)[C@H](C)NC(=O)[C@H](C)NC(=O)[C@@H](NC(=O)[C@H](CO)NC(=O)[C@H](CCCCN)NC(=O)[C@H](CO)NC(=O)[C@H](Cc2ccc(O)cc2)NC(=O)[C@H](CC(C)C)NC(=O)[C@H](CC(=O)O)NC(=O)[C@H](CCCNC(=N)N)NC(=O)[C@H](CC(C)C)NC(=O)[C@H](CCCCN)NC(=O)[C@@H](N)CCC(=O)O)[C@@H](C)O)CCCCCCC=CCCC[C@@](C)(C(=O)N[C@@H](CC(=O)O)C(=O)N[C@@H](CCC(N)=O)C(=O)N[C@H](C(=O)N[C@@H](CC(C)C)C(=O)N[C@@H](CO)C(=O)N[C@H](C(=O)N[C@@H](CC(C)C)C(=O)N[C@@H](CCCCN)C(=O)NCC(=O)N[C@@H](CCC(=O)O)C(=O)N[C@@H](CCC(=O)O)C(=O)O)C(C)C)C(C)C)NC(=O)[C@H](Cc2ccccc2)NC1=O [P5] (H-EKLRDLYSKSTAAM[R8]TYTGIF[S5]DQVLSVLKGEE-OH; staple 15-22),25 to 33,–
CC[C@H](C)[C@@H]1NC(=O)CNC(=O)[C@H]([C@@H](C)O)NC(=O)[C@H](Cc2ccc(O)cc2)NC(=O)[C@H]([C@@H](C)O)NC(=O)[C@](C)(NC(=O)[C@H](CCSC)NC(=O)[C@H](C)N)CCCCCCC=CCCC[C@@](C)(C(=O)N[C@@H](CC(=O)O)C(=O)N[C@@H](CCC(N)=O)C(=O)N[C@H](C(=O)N[C@@H](CC(C)C)C(=O)N[C@@H](CO)C(=O)N[C@H](C(=O)N[C@@H](CC(C)C)C(=O)N[C@@H](CCCCN)C(=O)NCC(=O)N[C@@H](CCC(=O)O)C(=O)N[C@@H](CCC(=O)O)C(=O)O)C(C)C)C(C)C)NC(=O)[C@H](Cc2ccccc2)NC1=O [P6] (H-AM[R8]TYTGIF[S5]DQVLSVLKGEE-OH; staple 3-10 (inferred); N-terminus and C-terminus assumed),–,just as active
